Results from patent publication US11154551B2, “HDAC1,2 inhibitors and methods of using the same” (UNIVERSITY OF UTAH RESEARCH FOUNDATION, priority 2014, dated 2021).
“Also recorded” adds a separate entry of the source.

What was measured:
Format in all cases: cell-based, human
Karpas-422 cells [1] = test: propidium-iodide / BrdU-PI cell cycle analysis
Method: (B): Quantitation of the cell cycle data in (A), compiled from three independent analyses. The graphs plotted the average percentage of cells in each phase of the cell cycle. […] (C): FACS analysis following BrdU-PI staining of Karpas-422 and SUDHL4 cells was performed following a 48 h or 72 h treatment with ACY-957.
Cell cycle analysis of propidium-iodide stained cells was performed with fixed cells. […] (C): FACS analysis following BrdU-PI staining of Karpas-422 and SUDHL4 cells was performed following a treatment with 2 μM ACY-957, 50 nM doxorubicin or both for 48 h.
(B): Quantitation of the cell cycle analysis performed in (A). Data from three independent cell cycle analyses were compiled and average percentage cells with standard errors were shown in this panel.
Propidium-iodide Cell Cycle Analysis.
Since these DLBCL cells expressed a hyperactive form of EZH2, pharmacological inhibition of EZH2 activity was considered a therapeutic strategy. […] GSK126 was a S-adenosyl-methionine-competitive inhibitor of EZH2 methyltransferase activity, and DZNep was a S-adenosylhomocysteine hydrolase inhibitor that disrupted the components of the PRC2 complex, thereby causing reduced chromatin-associated EZH2 levels.
To test this possibility, cell cycle analysis following treatment of Karpas-422 with ACY-957, doxorubicin, or ACY-957 in combination with doxorubicin was performed.

Karpas-422 cells [2] = test: ChIP of H3K27ac and H3K27me3 at BMF and TP63 promoters; details: 2 μM, vs DMSO
Text: RNA samples obtained from three independent treatments were subjected to RiboZero stranded sequencing using the Illumina Hiseq2000 sequencer. RNA-seq data from ACY-957-treated samples was compared to the publically available RNA seq data set from Karpas-422 cells following GSK126 treatment of Karpas-422 cells. Venn diagrams were made using the R package VennDiagram. Genes with adjusted p-value<0.05 and absolute log 2 fold change>0.585 were used in this analysis. (B): Pathway analysis of the 71 commonly up regulated genes was performed. Screen shots of the pathways that were misregulated in both ACY-957-treated Karpas-422 cells and in Karpas-422 cells following GSK-126 treatment. […] (C): Base read depth, scaled per million mapped reads, for BMF and Tp63 genes in DMSO- or ACY-957-treated Karpas-422 cells. […] Fold-increase as determined by real-time PCR analysis in H3K27ac relative to total H3 occupancy was calculated for both ACY-957-treated and DMSO-treated samples and the relative fold-enrichment of H3K27ac and […] in ACY-957-treated samples was calculated following normalization to DMSO-treated samples. The data represented an average fold-change calculated from three independent experiments+/−standard error. *p=0.003 and **p=0.004 (E): ChIP analysis of HDAC1 and HDAC2 at the promoters of BMF and Tp63 genes was performed in Karpas-422 cells. […]

[3] = tested on: SupB15 (Ph+PreB-ALL) cells; test: γH2AX immunofluorescence; details: 2 μM, 48 hours
Method: SupB15 cells were treated with 2 μM ACY1035, ACY1071, ACY957, or solvent (DMSO) for 48 hours. (A) Immunofluorescence with γH2AX was performed on treated SupB15 cells. The number of γH2AX foci was counted in around 100 cells for each treatment and classified into cells with no foci, 1-5, 6-10, and greater than 10 foci. (B) SupB15 cells treated with DMSO or ACY1035 for 48 hours were tested via neutral comet assay to measure the amount of double-strand breaks (DSBs), indicated by the tail.
BCR-ABL promotes DNA repair to prevent DNA damage accumulation in Philadelphia chromosome-positive (Ph+) leukemia cells. To examine the effect of various HDAC1,2-selective inhibitors on DNA repair and DNA damage response in Pre-B-ALL cells that express BCR-ABL, SupB15 (Ph+PreB-ALL) cells were treated with 2 μM ACY1035 or 2 μM ACY1071 or 2 μM ACY957 for 48 hours.

`Nc1ccc(-c2cccs2)cc1NC(=O)c1ccc2nc(N3CCNCC3)ccc2c1` [ACY-957, N-(2-amino-5-(thiophen-2-yl)phenyl)-2-(piperazin-1-yl)quinoline-6-carboxamide] was tested, and the “cell death / sub-G1 population” value (Karpas-422 cells [1]; 2 μM ACY-957, 50 nM doxorubicin or both, 48 h) was “sub-G1 population (i.e., dead cells) was observed”, the “progression through the cell cycle” value (Karpas-422 cells [1]; 24 h, 2 μM ACY-957, 0.5 μM DZNEP, 0.5 μM GSK126) was “did not affect their progression through the cell cycle” and the “cell cycle / sub-G1 (dead cells)” value (Karpas-422 cells [1]; 48 h, 2 μM ACY-957, 0.5 μM DZNEP, 0.5 μM GSK126) was “modest accumulation of sub-G1 population”. For the same molecule, the “S-phase population, BrdU-PI FACS” value (Karpas-422 cells [1]; 48 h and 72 h, accompanied by increased cell death) was “decrease in S-phase population”, the “cell cycle / sub-G1 (dead cells)” value (Karpas-422 cells [1]; 72 h, 2 μM ACY-957, 0.5 μM DZNEP, 0.5 μM GSK126) was “larger increase in the number of sub-G1/dead cells; also recorded: large increase in the number of sub-G1 or dead Karpas-422 cells” and the “H3K27ac at promoter regions of TP63 and BMF” value (Karpas-422 cells [2]) was “increase in H3K27ac levels at the promoter regions of both TP63 and BMF genes”. For the same molecule, the “H3K27me3 at TP63 and BMF promoters” value (Karpas-422 cells [2]) was “concomitant decrease in H3K27me3 was not observed” and the “DNA damage, quantitation of γH2AX foci” value [3] was “statistically significant increase in DNA damage”.
